The source of these data is patent US12679807B2 (MERCK SHARP & DOHME LLC, priority 2020, dated 2026).

By EC50 is commonly meant the midpoint of the concentration-response curve. The low end stands for an effect from little substance, the high end for a need for much substance.

In the assay the target is T1, GCS enzyme contained within Golgi preparations isolated from human A375 malignant melanoma skin cells (Homo sapiens, UniProt Q16739).
T1 construct: endogenous levels of GCS enzyme contained within Golgi preparations isolated from human A375 malignant melanoma skin cells; endogenous in cells; host or cells: A375 human malignant melanoma cells (crude Golgi preparation)
T1 sequence (Q16739 1-394): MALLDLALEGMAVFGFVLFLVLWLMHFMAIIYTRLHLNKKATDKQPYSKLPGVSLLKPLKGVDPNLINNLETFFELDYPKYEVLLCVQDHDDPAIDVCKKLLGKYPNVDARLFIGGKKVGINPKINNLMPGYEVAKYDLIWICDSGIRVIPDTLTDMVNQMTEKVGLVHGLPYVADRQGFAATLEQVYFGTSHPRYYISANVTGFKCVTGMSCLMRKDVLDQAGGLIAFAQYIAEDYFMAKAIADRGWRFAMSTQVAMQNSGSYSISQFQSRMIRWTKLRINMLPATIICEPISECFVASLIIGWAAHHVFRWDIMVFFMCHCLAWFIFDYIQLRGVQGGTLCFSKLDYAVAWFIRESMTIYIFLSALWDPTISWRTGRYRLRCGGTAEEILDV
In words: UDP-Glo glucosylceramide synthase biochemical assay. The following applies: crude Golgi preparation from A375 cells; C6 ceramide and UDP-glucose substrates; 20 h incubation at room temperature; UDP detected by luminescence. In short, it runs like this: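 Endogenous enzyme in A375 Golgi preparations (1.5 μg total protein) was preincubated 30 min with compound, then reacted 20 h at room temperature with UDP-glucose and ceramide.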

Regarding `Cc1cnc2c(c1COc1cccc3c1C(=O)N(C(C1CC1)C(C)(C)O)C3)OCO2` (single isomer, unassigned) [Compound 181], the midpoint of the response, the EC50, lay at 54 nM.

In the case of `Cc1nnc(-c2cccc(-c3cccc4c3C(=O)N([C@H](C3CC3)C(C)(C)O)C4)c2)o1` [Compound 13, (R)-2-(1-cyclopropyl-2-hydroxy-2-methylpropyl)-7-(3-(5-methyl-1,3,4-oxadiazol-2-yl)phenyl)isoindolin-1-one], it took 260 nM to reach a half-maximal effect (EC50).

Compound `Cc1nnc(-c2ccc(-c3c(F)ccc4c3C(=O)N([C@H](C3CC3)C(C)(C)O)C4)cc2F)o1` [Compound 22, (R)-2-(1-cyclopropyl-2-hydroxy-2-methylpropyl)-6-fluoro-7-(3-fluoro-4-(5-methyl-1,3,4-oxadiazol-2-yl)phenyl) isoindolin-1-one] displayed an EC50 of […]. Compound `Cc1cc(-c2ccc(-c3cc(F)cc4c3C(=O)N([C@H](C3CC3)C(C)(C)O)C4)cc2)on1` [Compound 26, (R)-2-(1-cyclopropyl-2-hydroxy-2-methylpropyl)-5-fluoro-7-(4-(3-methylisoxazol-5-yl)phenyl)isoindolin-1-one] had an EC50 of 1 nM.

In turn, `Cc1nnc(-c2ccc(-c3cc(F)cc4c3C(=O)N([C@H](C3CC3)C(C)(C)O)C4)c(F)c2)o1` [Compound 27, (R)-2-(1-cyclopropyl-2-hydroxy-2-methylpropyl)-5-fluoro-7-(2-fluoro-4-(5-methyl-1,3,4-oxadiazol-2-yl)phenyl)isoindolin-1-one] gave an EC50 of 1.4 nM. Next, `Cn1cc(-c2ccc(-c3nccc4c3C(=O)N([C@H](C3CC3)C(C)(C)O)C4)cc2)cn1` [Compound 29, (R)-2-(1-cyclopropyl-2-hydroxy-2-methylpropyl)-4-(4-(1-methyl-1H-pyrazol-4-yl)phenyl)-1,2-dihydro-3H-pyrrolo[3,4-c]pyridin-3-one]: 200 nM; `Cn1cc(-c2ccc(-c3cncc4c3C(=O)N([C@H](C3CC3)C(C)(C)O)C4)cc2)cn1` [Compound 32, (R)-2-(1-cyclopropyl-2-hydroxy-2-methylpropyl)-7-(4-(1-methyl-1H-pyrazol-4-yl)phenyl)-2,3-dihydro-1H-pyrrolo[3,4-c]pyridin-1-one]: 57 nM; `Cn1cc(-c2ccc(-c3ccnc4c3C(=O)N([C@H](C3CC3)C(C)(C)O)C4)cc2)cn1` [Compound 34, (R)-6-(1-cyclopropyl-2-hydroxy-2-methylpropyl)-4-(4-(1-methyl-1H-pyrazol-4-yl)phenyl)-6,7-dihydro-5H-pyrrolo[3,4-b]pyridin-5-one]: 48 nM.

As to `Cc1cc(-c2ccnc3c2C(=O)N([C@H](C2CC2)C(C)(C)O)C3)c(F)cc1-c1cnn(C)c1` [Compound 35, (R)-6-(1-cyclopropyl-2-hydroxy-2-methylpropyl)-4-(2-fluoro-5-methyl-4-(1-methyl-1H-pyrazol-4-yl)phenyl)-6,7-dihydro-5H-pyrrolo[3,4-b]pyridin-5-one], the response was half-maximal at 6.8 nM (EC50). The same measure for `Cn1cc(-c2ccc(-c3ccc(Cl)c4c3C(=O)N([C@H](C3CC3)C(C)(C)O)C4)cc2)cn1` [Compound 37, (R)-4-chloro-2-(1-cyclopropyl-2-hydroxy-2-methylpropyl)-7-(4-(1-methyl-1H-pyrazol-4-yl)phenyl)isoindolin-1-one]: 0.24 nM. The same measure for `Cc1nnc(-c2ccc(-c3ccc(Cl)c4c3C(=O)N([C@H](C3CC3)C(C)(C)O)C4)cc2)o1` [Compound 38, (R)-4-chloro-2-(1-cyclopropyl-2-hydroxy-2-methylpropyl)-7-(4-(5-methyl-1,3,4-oxadiazol-2-yl)phenyl)isoindolin-1-one]: 0.55 nM; for `Cc1nnc(-c2ccc(-c3c(Cl)ccc4c3C(=O)N([C@H](C3CC3)C(C)(C)O)C4)cc2)o1` [Compound 40, (R)-6-chloro-2-(1-cyclopropyl-2-hydroxy-2-methylpropyl)-7-(4-(5-methyl-1,3,4-oxadiazol-2-yl)phenyl)isoindolin-1-one]: 0.98 nM. Next, `Cc1nnc(-c2ccc(-c3c(F)cc(Cl)c4c3C(=O)N([C@H](C3CC3)C(C)(C)O)C4)cc2)o1` [Compound 41, (R)-4-chloro-2-(1-cyclopropyl-2-hydroxy-2-methylpropyl)-6-fluoro-7-(4-(5-methyl-1,3,4-oxadiazol-2-yl)phenyl)isoindolin-1-one]: 0.25 nM; `C[C@@H](N1Cc2cccc(-c3ccccc3OCC(F)(F)F)c2C1=O)C(C)(C)O` [Compound 46, (R)-2-(3-hydroxy-3-methylbutan-2-yl)-7-(2-(2,2,2-trifluoroethoxy)phenyl) isoindolin-1-one]: 140 nM.

As to `CC[C@@H](N1Cc2cccc(-c3ccc(-c4nnc(C)o4)cc3)c2C1=O)C(C)(C)O` [Compound 48, 2-[(1R)-1-ethyl-2-hydroxy-2-methyl-propyl]-7-[4-(5-methyl-1,3,4-oxadiazol-2-yl)phenyl]isoindolin-1-one], it took 81 nM to reach a half-maximal effect (EC50). As to `O=C1c2c(cccc2-c2ccccc2OCC(F)(F)F)CN1[C@@H](CO)C1CC1` [Compound 49, (R)-2-(1-cyclopropyl-2-hydroxyethyl)-7-(2-(2,2,2-trifluoroethoxy)phenyl) isoindolin-1-one], the concentration for a half-maximal effect (EC50) worked out at 92 nM. The same measure for `Cc1nnc(-c2ccc(-c3cccc4c3C(=O)N([C@@H](CO)C3CC3)C4)cc2)o1` [Compound 50, (R)-2-(1-cyclopropyl-2-hydroxyethyl)-7-(4-(5-methyl-1,3,4-oxadiazol-2-yl)phenyl)isoindolin-1-one]: 630 nM. Next, `Cc1nn(C)c2ccc(-c3c(F)ccc4c3C(=O)N([C@H](C3CC3)C(C)(C)O)C4)cc12` [Compound 55, (R)-2-(1-cyclopropyl-2-hydroxy-2-methylpropyl)-7-(1,3-dimethyl-1H-indazol-5-yl)-6-fluoroisoindolin-1-one]: 0.18 nM.

`Cc1nn(C)c2ccc(-c3ccc(F)c4c3C(=O)N([C@H](C3CC3)C(C)(C)O)C4)cc12` [Compound 56, (R)-2-(1-cyclopropyl-2-hydroxy-2-methylpropyl)-7-(1,3-dimethyl-1H-indazol-5-yl)-4-fluoroisoindolin-1-one] showed an EC50 of 0.43 nM. As for `COC(C)(C)[C@@H](C1CC1)N1Cc2cccc(-c3ccc(-c4nnc(C)o4)cc3)c2C1=O` [Compound 57, (R)-2-(1-cyclopropyl-2-methoxy-2-methylpropyl)-7-(4-(5-methyl-1,3,4-oxadiazol-2-yl)phenyl)isoindolin-1-one], the EC50 amounted to 260 nM.

Compound `Cc1nnc(-c2ccc(-c3ccc(O)c4c3C(=O)N([C@H](C3CC3)C(C)(C)O)C4)cc2)o1` [Compound 58, (R)-2-(1-Cyclopropyl-2-hydroxy-2-methylpropyl)-4-hydroxy-7-(4-(5-methyl-1,3,4-oxadiazol-2-yl)phenyl)isoindolin-1-one] yielded a concentration for a half-maximal effect (EC50) of 28 nM.

Compound `Cc1nnc(-c2ccc(-c3c(F)cc(O)c4c3C(=O)N([C@H](C3CC3)C(C)(C)O)C4)cc2)o1` [Compound 59, (R)-2-(1-cyclopropyl-2-hydroxy-2-methylpropyl)-6-fluoro-4-hydroxy-7-(4-(5-methyl-1,3,4-oxadiazol-2-yl)phenyl) isoindolin-1-one] had an EC50 of 9.9 nM. Regarding `Cn1cc(-c2ccc(-c3ccc(O)c4c3C(=O)N([C@H](C3CC3)C(C)(C)O)C4)cc2)cn1` [Compound 60, (R)-2-(1-cyclopropyl-2-hydroxy-2-methylpropyl)-4-hydroxy-7-(4-(1-methyl-1H-pyrazol-4-yl)phenyl) isoindolin-1-one], the concentration giving a half-maximal response (EC50) came to 9.4 nM. Regarding `Cc1cc2c(c(-c3ccc(-c4nnc(C)o4)cc3)c1)C(=O)N([C@H](C1CC1)C(C)(C)O)C2` [Compound 61, (R)-2-(1-Cyclopropyl-2-hydroxy-2-methylpropyl)-5-methyl-7-(4-(5-methyl-1,3,4-oxadiazol-2-yl)phenyl)isoindolin-1-one], the EC50 is 8.9 nM.

Compound `Cc1cnc(-c2ccc(-c3cccc4c3C(=O)N([C@H](C3CC3)C(C)(C)O)C4)cc2)o1` [Compound 64, (R)-2-(1-Cyclopropyl-2-hydroxy-2-methylpropyl)-7-(4-(5-methyloxazol-2-yl)phenyl)isoindolin-1-one] had a 50% effective concentration (EC50) of 180 nM. In the case of `Cc1nnc(-c2ccc(-c3cccc4c3C(=O)N([C@H](C3CC3)C(C)(C)O)C4)cn2)o1` [Compound 65, (R)-2-(1-cyclopropyl-2-hydroxy-2-methylpropyl)-7-(6-(5-methyl-1,3,4-oxadiazol-2-yl)pyridin-3-yl)isoindolin-1-one], the midpoint of the response, the EC50, lay at 150 nM. Next, `Cc1nnc(-c2ncc(-c3cccc4c3C(=O)N([C@H](C3CC3)C(C)(C)O)C4)cc2F)o1` [Compound 66, (R)-2-(1-cyclopropyl-2-hydroxy-2-methylpropyl)-7-(5-fluoro-6-(5-methyl-1,3,4-oxadiazol-2-yl)pyridin-3-yl)isoindolin-1-one]: 500 nM; `COc1cc(-c2cccc3c2C(=O)N([C@H](C2CC2)C(C)(C)O)C3)ccc1-c1nnc(C)o1` [Compound 67, (R)-2-(1-cyclopropyl-2-hydroxy-2-methylpropyl)-7-(3-methoxy-4-(5-methyl-1,3,4-oxadiazol-2-yl)phenyl)isoindolin-1-one]: 12 nM. Next, `Cc1nnc(-c2ccc(-c3cccc4c3C(=O)N([C@H](C3CC3)C(C)(C)O)C4)c(F)c2)o1` [Compound 68, (R)-2-(1-cyclopropyl-2-hydroxy-2-methylpropyl)-7-(2-fluoro-4-(5-methyl-1,3,4-oxadiazol-2-yl)phenyl)isoindolin-1-one]: 3.5 nM.
